From US11116760B2 (Gilead Sciences, Inc., priority 2018, dated 2021)

Molecular target: α4β7 integrin (Homo sapiens (Human), UniProt P13612+P26010)
Assay: α4β7 Integrin Cell Capture Assay
Assay type: cell-based
[1] = Table 1, capture of α4β7 expressing RPM18866 cells on MadCAM-1 extracellular domain-coated plate
[2] = Table 2, capture of α4β7 expressing RPM18866 cells on MadCAM-1 extracellular domain-coated plate
[3] = RPMI8866 cells captured on MadCAM-1 extracellular domain-coated plate

α4β7 integrin, sequence (P13612 34-1032): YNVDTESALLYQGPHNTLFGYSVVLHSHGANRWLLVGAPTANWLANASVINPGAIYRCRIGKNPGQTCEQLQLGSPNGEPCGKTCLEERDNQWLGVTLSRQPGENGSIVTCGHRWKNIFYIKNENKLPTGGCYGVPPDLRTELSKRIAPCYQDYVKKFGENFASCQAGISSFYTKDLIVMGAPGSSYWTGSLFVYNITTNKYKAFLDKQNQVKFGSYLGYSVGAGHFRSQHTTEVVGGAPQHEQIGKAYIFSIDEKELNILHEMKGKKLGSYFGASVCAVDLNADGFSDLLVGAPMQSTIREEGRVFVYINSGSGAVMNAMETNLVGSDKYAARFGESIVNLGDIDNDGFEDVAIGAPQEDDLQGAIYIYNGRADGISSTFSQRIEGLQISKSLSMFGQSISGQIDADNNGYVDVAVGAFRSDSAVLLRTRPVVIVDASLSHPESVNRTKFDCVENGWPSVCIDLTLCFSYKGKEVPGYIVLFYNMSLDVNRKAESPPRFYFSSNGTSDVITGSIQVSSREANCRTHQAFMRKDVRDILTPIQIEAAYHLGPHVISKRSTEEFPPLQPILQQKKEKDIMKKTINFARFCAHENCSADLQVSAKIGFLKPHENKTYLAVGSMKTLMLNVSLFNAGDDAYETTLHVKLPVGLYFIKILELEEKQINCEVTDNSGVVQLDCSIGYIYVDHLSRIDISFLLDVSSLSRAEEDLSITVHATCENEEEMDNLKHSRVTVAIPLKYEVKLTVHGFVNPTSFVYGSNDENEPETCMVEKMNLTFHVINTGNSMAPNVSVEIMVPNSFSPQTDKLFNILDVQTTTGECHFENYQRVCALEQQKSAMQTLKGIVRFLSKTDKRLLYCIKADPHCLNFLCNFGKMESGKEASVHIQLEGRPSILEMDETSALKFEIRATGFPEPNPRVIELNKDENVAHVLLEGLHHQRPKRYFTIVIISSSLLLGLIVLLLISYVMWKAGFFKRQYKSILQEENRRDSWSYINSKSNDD
α4β7 integrin, sequence (P26010 20-798): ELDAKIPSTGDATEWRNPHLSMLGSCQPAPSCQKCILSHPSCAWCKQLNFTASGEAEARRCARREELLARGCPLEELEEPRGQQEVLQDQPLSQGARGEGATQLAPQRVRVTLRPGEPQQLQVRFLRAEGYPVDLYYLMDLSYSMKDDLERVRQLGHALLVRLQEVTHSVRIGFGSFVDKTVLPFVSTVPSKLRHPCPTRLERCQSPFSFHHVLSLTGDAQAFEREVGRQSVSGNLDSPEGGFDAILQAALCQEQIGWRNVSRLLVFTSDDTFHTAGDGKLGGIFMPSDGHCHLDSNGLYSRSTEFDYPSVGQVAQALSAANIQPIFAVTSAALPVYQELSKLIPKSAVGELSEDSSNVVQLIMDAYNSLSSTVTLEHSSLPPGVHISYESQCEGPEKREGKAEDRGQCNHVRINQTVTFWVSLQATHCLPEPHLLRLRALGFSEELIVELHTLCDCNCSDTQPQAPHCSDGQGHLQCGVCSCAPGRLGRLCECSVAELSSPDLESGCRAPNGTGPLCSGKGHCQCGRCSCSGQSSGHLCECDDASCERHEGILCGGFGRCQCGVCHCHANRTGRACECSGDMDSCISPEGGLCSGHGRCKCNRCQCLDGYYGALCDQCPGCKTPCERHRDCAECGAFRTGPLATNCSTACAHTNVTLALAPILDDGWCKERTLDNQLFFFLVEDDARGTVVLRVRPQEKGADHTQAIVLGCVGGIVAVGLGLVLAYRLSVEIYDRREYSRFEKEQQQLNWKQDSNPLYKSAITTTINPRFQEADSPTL

Compound `CCOCc1cc(OC)c(-c2ccc(C[C@H](NC(=O)c3c(F)cc(C#N)cc3F)C(=O)O)c3cccnc23)c(OC)c1` [Example 42, (S)-2-(4-cyano-2,6-difluorobenzamido)-3-(8-(4-(ethoxymethyl)-2,6-dimethoxyphenyl)quinolin-5-yl)propanoic acid] has an EC50 [1] of 13.4 nM.

`O=C(N[C@@H](Cc1ccc(-c2ccc(C3CC3)cc2Cl)c2ncccc12)C(=O)O)c1c(F)cc(NS(=O)(=O)c2ccc(-c3ccnc(F)c3)cc2)cc1F` [Example 54, (S)-3-(8-(2-chloro-4-cyclopropylphenyl)quinolin-5-yl)-2-(2,6-difluoro-4-((4-(2-fluoropyridin-4-yl)phenyl)sulfonamido)benzamido)propanoic acid] showed an EC50 [1] of 37.4 nM.

With `Cc1cccc(F)c1C(=O)N[C@@H](Cc1ccc(-c2ccc(C#N)cc2Cl)c2ncccc12)C(=O)O` [Example 1, (S)-3-(8-(2-chloro-4-cyanophenyl)quinolin-5-yl)-2-(2-fluoro-6-methylbenzamido)propanoic acid] the EC50 [1] was 21.2 nM.

In the case of `Cc1cc(C(F)(F)F)c(-c2ccc(C[C@H](NC(=O)c3c(F)cc(N4CCOCC4)cc3F)C(=O)O)c3cccnc23)c(=O)n1C` [Example 217], the EC50 [2] is reported as 2 nM.

`COc1cnn(C)c(=O)c1-c1ccc(C[C@H](NC(=O)c2c(F)cc(N[C@H](C)C(F)(F)F)cc2F)C(=O)O)c2cccnc12` [Example 207] gave an EC50 [2] of 1.7 nM.

`CS(=O)(=O)c1cc(F)ccc1-c1ccc(C[C@H](NC(=O)c2c(F)cc(NS(=O)(=O)c3ccc(-c4ccnc(F)c4)cc3)cc2F)C(=O)O)c2cccnc12` [Example 61, (S)-2-(2,6-difluoro-4-((4-(2-fluoropyridin-4-yl)phenyl)sulfonamido)benzamido)-3-(8-(4-fluoro-2-(methylsulfonyl)phenyl)quinolin-5-yl)propanoic acid] showed an EC50 [1] of 4.2 nM.

`CC[C@@H](Nc1cc(F)c(C(=O)N[C@@H](Cc2ccc(-c3c(C(F)(F)F)c4c(n(C)c3=O)CCC4)c3ncccc23)C(=O)O)c(F)c1)C(F)(F)F` [Example 126, (S)-2-(2,6-difluoro-4-(((R)-1,1,1-trifluorobutan-2-yl)amino)benzamido)-3-(8-(1-methyl-2-oxo-4-(trifluoromethyl)-2,5,6,7-tetrahydro-1H-cyclopenta[b]pyridin-3-yl)quinolin-5-yl)propanoic acid] showed an EC50 [1] of 0.6 nM.

In the case of `CC[C@@H](Nc1cc(F)c(C(=O)N[C@@H](Cc2ccc(-c3c(OC)cc(CN4CCOCC4)cc3OC)c3ncccc23)C(=O)O)c(F)c1)C(F)(F)F` [Example 121, (S)-2-(2,6-difluoro-4-(((R)-1,1,1-trifluorobutan-2-yl)amino)benzamido)-3-(8-(2,6-dimethoxy-4-(morpholinomethyl)phenyl)quinolin-5-yl)propanoic acid], the EC50 [1] is reported as 1.7 nM.

`Cc1cc2c(=O)n(-c3ccc(C[C@H](NC(=O)c4c(C)cc(N5CCOC[C@@H]5C(F)(F)F)cc4F)C(=O)O)c4cccnc34)c(=O)n(C)c2cn1` [Example 425] was tested, and the EC50 [3] was 0.185 nM.

Compound `CS(=O)(=O)Nc1cc(F)c(C(=O)N[C@@H](Cc2ccc(-c3ccc(C#N)cc3Cl)c3ncccc23)C(=O)O)c(F)c1` [Example 45, (S)-3-(8-(2-chloro-4-cyanophenyl)quinolin-5-yl)-2-(2,6-difluoro-4-(methylsulfonamido)benzamido)propanoic acid] has an EC50 [1] of 3.4 nM.

`CC[C@@H](Nc1cc(F)c(C(=O)N[C@@H](Cc2ccc(-c3c(C(F)(F)F)cc(C)n(C)c3=O)c3ncccc23)C(=O)O)c(Cl)c1)C(F)(F)F` [Example 144, (S)-2-(2-chloro-6-fluoro-4-(((R)-1,1,1-trifluorobutan-2-yl)amino)benzamido)-3-(8-(1,6-dimethyl-2-oxo-4-(trifluoromethyl)-1,2-dihydropyridin-3-yl)quinolin-5-yl)propanoic acid] was tested, and the EC50 [1] was 0.2 nM.

`Cc1cc(C(F)(F)F)c(-c2ccc(C[C@H](NC(=O)c3c(F)cc(N4CCOC[C@@H]4C(F)(F)F)cc3C(C)C)C(=O)O)c3cccnc23)c(=O)n1C` [Example 470] was tested, and the EC50 [3] was 0.181 nM.

In the case of `O=C(N[C@@H](Cc1ccc(-c2c(C(F)(F)F)cc3n(c2=O)CCC3)c2ncccc12)C(=O)O)c1c(Cl)cccc1Cl` [Example 308], the EC50 [2] is reported as 11.9 nM.

Work on `COc1cnc2c(=O)n(-c3ccc(C[C@H](NC(=O)c4c(C)cc(N5CCOC[C@@H]5C(F)(F)F)cc4F)C(=O)O)c4cccnc34)c(=O)n(C)c2c1` [Example 415] yielded an EC50 [3] of 0.091 nM.

Work on `Cc1c(N)cc(-c2ccc(C[C@H](NC(=O)c3c(F)cc(N4CCOC[C@@H]4C(F)(F)F)cc3F)C(=O)O)c3cccnc23)c(=O)n1C` [Example 273] yielded an EC50 [2] of 4.7 nM.

Work on `CCOCc1cc(OC)c(-c2ccc(C[C@H](NC(=O)c3c(F)cc(CS(=O)(=O)c4ccccc4)cc3F)C(=O)O)c3cccnc23)c(OC)c1` [Example 224] yielded an EC50 [2] of 2.2 nM.

In the case of `Cc1cc(C)n(C)c(=O)c1-c1ccc(C[C@H](NC(=O)c2c(F)cc(N3CCOC[C@@H]3C(F)(F)F)cc2F)C(=O)O)c2cccnc12` [Example 95, (S)-2-(2,6-difluoro-4-((R)-3-(trifluoromethyl)morpholino)benzamido)-3-(8-(1,4,6-trimethyl-2-oxo-1,2-dihydropyridin-3-yl)quinolin-5-yl)propanoic acid], the EC50 [1] is reported as 0.3 nM.

With `CCOCc1cc(OC)c(-c2ccc(C[C@H](NC(=O)c3c(Cl)cc4[nH]ccc4c3Cl)C(=O)O)c3cccnc23)c(OC)c1` [Example 235] the EC50 [2] was 2.3 nM.

In the case of `CCCN(c1cc(F)c(C(=O)N[C@@H](Cc2ccc(-c3c(C(F)(F)F)cc(C)n(C)c3=O)c3ncccc23)C(=O)O)c(F)c1)[C@H](CC)C(F)(F)F` [Example 339], the EC50 [2] is reported as 0.6 nM.

`CC[C@@H](N(C)c1cc(F)c(C(=O)N[C@@H](Cc2ccc(-c3c(C(F)(F)F)cc(C)n(C)c3=O)c3ncccc23)C(=O)O)c(F)c1)C(F)(F)F` [Example 135, (S)-2-(2,6-difluoro-4-(methyl((R)-1,1,1-trifluorobutan-2-yl)amino)benzamido)-3-(8-(1,6-dimethyl-2-oxo-4-(trifluoromethyl)-1,2-dihydropyridin-3-yl)quinolin-5-yl)propanoic acid] showed an EC50 [1] of 0.4 nM.

`COc1cc(C)n(C)c(=O)c1-c1ccc(C[C@H](NC(=O)c2c(F)cc(N3CCCC[C@@H]3C(F)(F)F)cc2F)C(=O)O)c2cccnc12` [Example 190] showed an EC50 [2] of 1.2 nM.

Work on `Cc1cc(Cl)c(-c2ccc(C[C@H](NC(=O)c3c(F)cc(N4CCOC[C@@H]4C(F)(F)F)cc3F)C(=O)O)c3cccnc23)c(=O)n1C` [Example 100, (S)-3-(8-(4-chloro-1,6-dimethyl-2-oxo-1,2-dihydropyridin-3-yl)quinolin-5-yl)-2-(2,6-difluoro-4-((R)-3-(trifluoromethyl)morpholino)benzamido)propanoic acid] yielded an EC50 [1] of 0.7 nM.

For `Cc1cc(C(F)(F)F)c(-c2ccc(C[C@H](NC(=O)c3c(F)cc(N4C[C@H]5C[C@@H]4CO5)cc3F)C(=O)O)c3cccnc23)c(=O)n1C` [Example 480], the EC50 [3] was 0.297 nM.

`COc1cc2c(=O)n(-c3ccc(C[C@H](NC(=O)c4c(F)cc(N5CCOC[C@@H]5C(F)(F)F)cc4F)C(=O)O)c4cccnc34)c(=O)n(C)c2cn1` [Example 428] gave an EC50 [3] of 0.18 nM.

`N#Cc1cc(Cl)c(-c2ccc(C[C@H](NC(=O)c3c(F)cc(CS(=O)(=O)c4ccccc4)cc3F)C(=O)O)c3cccnc23)c(Cl)c1` [Example 293] was tested, and the EC50 [2] was 6.9 nM.

`CC[C@H](C)Nc1cc(F)c(C(=O)N[C@@H](Cc2ccc(-c3c(C(F)(F)F)cc(C)n(C)c3=O)c3ncccc23)C(=O)O)c(F)c1` [Example 134, (S)-2-(4-(((S)-sec-butyl)amino)-2,6-difluorobenzamido)-3-(8-(1,6-dimethyl-2-oxo-4-(trifluoromethyl)-1,2-dihydropyridin-3-yl)quinolin-5-yl)propanoic acid] showed an EC50 [1] of 4.2 nM.

`Cc1cc(N2CCOC[C@@H]2C(F)(F)F)cc(F)c1C(=O)N[C@@H](Cc1ccc(-n2c(=O)c3cc(N(C)C)ncc3n(C)c2=O)c2ncccc12)C(=O)O` [Example 416] was tested, and the EC50 [3] was 0.126 nM.

With `Cc1cc(C(F)(F)F)c(-c2ccc(C[C@H](NC(=O)c3c(F)cc(N[C@H](C)C(F)(F)F)cc3F)C(=O)O)c3cccnc23)c(=O)n1C` [Example 128, (S)-2-(2,6-difluoro-4-(((R)-1,1,1-trifluoropropan-2-yl)amino)benzamido)-3-(8-(1,6-dimethyl-2-oxo-4-(trifluoromethyl)-1,2-dihydropyridin-3-yl)quinolin-5-yl)propanoic acid] the EC50 [1] was 0.3 nM.

Work on `CC[C@@H](Nc1cc(F)c(C(=O)N[C@@H](Cc2ccc(-c3c(C)c(N(C)C)cn(C)c3=O)c3ncccc23)C(=O)O)c(F)c1)C(F)(F)F` [Example 287] yielded an EC50 [2] of 5.7 nM.

In the case of `CC[C@@H](Nc1cc(F)c(C(=O)N[C@@H](Cc2ccc(-c3c(C(F)(F)F)n(C)cc(C)c3=O)c3ncccc23)C(=O)O)c(F)c1)C(F)(F)F` [Example 479], the EC50 [3] is reported as 1.19 nM.

Work on `CN(C)c1ccc2c(c1)c(=O)n(-c1ccc(C[C@H](NC(=O)c3c(F)cc(N4CCOC[C@@H]4C(F)(F)F)cc3F)C(=O)O)c3cccnc13)c(=O)n2C` [Example 478] yielded an EC50 [3] of 0.394 nM.

`C[C@@H](N(C)c1cc(F)c(C(=O)N[C@@H](Cc2ccc(-c3ccc(C#N)cc3Cl)c3ncccc23)C(=O)O)c(F)c1)C(F)(F)F` [Example 87, (S)-3-(8-(2-chloro-4-cyanophenyl)quinolin-5-yl)-2-(2,6-difluoro-4-(methyl((R)-1,1,1-trifluoropropan-2-yl)amino)benzamido)propanoic acid] showed an EC50 [1] of 15 nM.

Compound `N#Cc1ccc(-c2ccc(C[C@H](NC(=O)c3c(F)cc(NC4(C(F)(F)F)CCC4)cc3F)C(=O)O)c3cccnc23)c(Cl)c1` [Example 164] has an EC50 [2] of 88.6 nM.

For `CCOCc1cc(OC)c(-c2ccc(CC(NC(=O)c3c(F)cccc3F)C(=O)O)c3ccc(C(F)(F)F)nc23)c(OC)c1` (centres unmarked) [Example 38, 2-(2,6-difluorobenzamido)-3-(8-(4-(ethoxymethyl)-2,6-dimethoxyphenyl)-2-(trifluoromethyl)quinolin-5-yl)propanoic acid], the EC50 [1] was 29.7 nM.

Work on `Cc1cnc(-c2ccc(C[C@H](NC(=O)c3c(F)cc(N4CCOC[C@@H]4C(F)(F)F)cc3F)C(=O)O)c3cccnc23)c(C(F)(F)F)c1` [Example 260] yielded an EC50 [2] of 3.8 nM.
